In the supplement of paper PMC13380429:
Where a name gives a salt, the structure may show the parent alone.

Experiments:
Details in all cases: 72 h
HepG2 [1] = assay: cell viability relative to DMSO; higher = less toxic
Calu-3 [2] = assay: as above
Caco-2 [3] = assay: as above
U2OS [4] = assay: as above
Vero E6 [5] = assay: as above
HepG2 [6] = assay: drug sensitivity score (DSS) for viability; higher = more toxic; extreme values may be limits of the assay
Calu-3 [7] = assay: as above
Caco-2 [8] = assay: as above
U2OS [9] = assay: as above
Vero E6 [10] = assay: as above
HepG2 [11] = assay: relative viability EC50 (midpoint between 100% and the lowest measured viability); higher = less toxic
Calu-3 [12] = assay: as above
Caco-2 [13] = assay: as above
U2OS [14] = assay: as above
Vero E6 [15] = assay: as above

| Compound | cell viability (HepG2 [1]; 1 nM) | cell viability (HepG2 [1]; 10 nM) | cell viability (HepG2 [1]; 100 nM) | cell viability (HepG2 [1]; 1000 nM) | cell viability (HepG2 [1]; 10000 nM) | cell viability (Calu-3 [2]; 1 nM) | cell viability (Calu-3 [2]; 10 nM) | cell viability (Calu-3 [2]; 100 nM) | cell viability (Calu-3 [2]; 1000 nM) | cell viability (Calu-3 [2]; 10000 nM) | cell viability (Caco-2 [3]; 1 nM) | cell viability (Caco-2 [3]; 10 nM) | cell viability (Caco-2 [3]; 100 nM) | cell viability (Caco-2 [3]; 1000 nM) | cell viability (Caco-2 [3]; 10000 nM) | cell viability (U2OS [4]; 1 nM) | cell viability (U2OS [4]; 10 nM) | cell viability (U2OS [4]; 100 nM) | cell viability (U2OS [4]; 1000 nM) | cell viability (U2OS [4]; 10000 nM) | cell viability (Vero E6 [5]; 1 nM) | cell viability (Vero E6 [5]; 10 nM) | cell viability (Vero E6 [5]; 100 nM) | cell viability (Vero E6 [5]; 1000 nM) | cell viability (Vero E6 [5]; 10000 nM) | drug sensitivity score (HepG2 [6]) | drug sensitivity score (Calu-3 [7]) | drug sensitivity score (Caco-2 [8]) | drug sensitivity score (U2OS [9]) | drug sensitivity score (Vero E6 [10]) | relative viability EC50 (HepG2 [11]) | relative viability EC50 (Calu-3 [12]) | relative viability EC50 (Caco-2 [13]) | relative viability EC50 (U2OS [14]) | relative viability EC50 (Vero E6 [15]) |
| --- | --- | --- | --- | --- | --- | --- | --- | --- | --- | --- | --- | --- | --- | --- | --- | --- | --- | --- | --- | --- | --- | --- | --- | --- | --- | --- | --- | --- | --- | --- | --- | --- | --- | --- | --- |
| O=C1C(c2ccccn2)=[N+]([O-])c2ccccc21 [PIT] | 99.8% | 103% | 96% | 91.8% | 97.9% | 95.2% | 106% | 94.7% | 93.9% | 102% | 104% | 95.1% | 92.7% | 92.1% | 109% | 97.6% | 100% | 99% | 95.3% | 101% | 102% | 102% | 97% | 97.6% | 97.5% | 0 | 0 | 0 | 0 | 0 | > 10 µM | > 10 µM | > 10 µM | > 10 µM | > 10 µM |
| CCCCCCCC/C=C\CCCCCCCC(N)=O [oleamide] | 104% | 101% | 99.2% | 92.7% | 104% | 107% | 98.7% | 93.9% | 104% | 89.7% | 99.3% | 92.4% | 95.3% | 96.5% | 99.7% | 98.8% | 103% | 97.1% | 100% | 91.3% | 97.3% | 99.3% | 100% | 100% | 101% | 0 | 0 | 0 | 0 | 0 | > 10 µM | > 10 µM | > 10 µM | > 10 µM | > 10 µM |
| CC(C)(C)C(=O)CN1C(=O)[C@H](NC(=O)Nc2cccc(C(=O)O)c2)CN(C2CCCCC2)c2ccccc21 [nastorazepide] | 99.9% | 106% | 96.7% | 108% | 95.9% | 96.7% | 104% | 113% | 98.8% | 118% | 96.6% | 95.4% | 93.1% | 92.7% | 95.8% | 100% | 96.7% | 103% | 96.5% | 100% | 104% | 105% | 99.2% | 105% | 98.8% | 0 | 0 | 0 | 0 | 0 | > 10 µM | > 10 µM | > 10 µM | > 10 µM | > 10 µM |
| CCCCCCOC(=O)CCC(=O)CN [hexaminolevulinate] | 111% | 105% | 99% | 102% | 101% | 93.9% | 101% | 111% | 108% | 104% | 102% | 93.7% | 101% | 104% | 96.6% | 100% | 102% | 98.1% | 103% | 98.4% | 109% | 98% | 104% | 99.2% | 99.5% | 0 | 0 | 0 | 0 | 0 | > 10 µM | > 10 µM | > 10 µM | > 10 µM | > 10 µM |
| CCOC(=O)N[C@@H]1CC[C@@H]2[C@@H](C1)C[C@H]1C(=O)O[C@H](C)[C@H]1[C@H]2/C=C/c1ccc(-c2cccc(F)c2)cn1 [vorapaxar] | 105% | 112% | 100% | 99.9% | 94.3% | 98% | 95% | 102% | 94.3% | 99.9% | 90% | 93.2% | 103% | 105% | 83% | 102% | 98.7% | 102% | 102% | 89.1% | 92.5% | 103% | 99.8% | 92.7% | 105% | 0 | 0 | 0.2 | 0 | 0 | > 10 µM | > 10 µM | > 10 µM | > 10 µM | > 10 µM |
| O=C(O)CCC(=O)O [succinic-acid] | 110% | 100% | 110% | 101% | 99.8% | 97.2% | 105% | 98.5% | 101% | 97.5% | 92.2% | 89.7% | 86% | 94.8% | 93.5% | 95.5% | 102% | 97.7% | 102% | 101% | 104% | 96.6% | 95.5% | 98.4% | 104% | 0 | 0 | 0 | 0 | 0 | > 10 µM | > 10 µM | > 10 µM | > 10 µM | > 10 µM |
| O=C(/C=C/c1ccc2c(c1)OCO2)N1CCCCC1 [ilepcimide] | 102% | 97.2% | 106% | 112% | 103% | 99.5% | 108% | 106% | 102% | 102% | 96.3% | 104% | 106% | 130% | 102% | 98.2% | 94.6% | 98.3% | 95.8% | 97.1% | 91% | 98.1% | 94.2% | 96.6% | 97.7% | 0 | 0 | 0 | 0 | 0 | > 10 µM | > 10 µM | > 10 µM | > 10 µM | > 10 µM |
| CO/N=C(\C(=O)N[C@@H]1C(=O)N2C(C(=O)O)=C(Cn3ccc(=N)n3CCO)CS[C@H]12)c1csc(N)n1 [Cefoselis sulfate] | 102% | 116% | 91.4% | 103% | 101% | 95.8% | 100% | 95.7% | 96.1% | 104% | 106% | 97.6% | 90.7% | 106% | 93.8% | 96.6% | 103% | 93.8% | 102% | 101% | 103% | 102% | 105% | 97.2% | 101% | 0 | 0 | 0 | 0 | 0 | > 10 µM | > 10 µM | > 10 µM | > 10 µM | > 10 µM |
| Oc1cccc(Nc2ccc(Nc3cccc(O)c3)nn2)c1 [beta-amyloid-synthesis-inhibitor] | 102% | 101% | 97.9% | 98.6% | 104% | 115% | 94.9% | 98.1% | 106% | 102% | 101% | 90.4% | 109% | 101% | 94.4% | 106% | 97.1% | 100% | 100% | 106% | 92.4% | 97.3% | 93.8% | 98% | 95.5% | 0 | 0 | 0 | 0 | 0 | > 10 µM | > 10 µM | > 10 µM | > 10 µM | > 10 µM |
| C[C@]12CC[C@H]3[C@@H](CCC4=CC(=O)CC[C@@H]43)[C@@H]1CC[C@@H]2O [Nandrolone] | 102% | 101% | 96.9% | 108% | 113% | 95.7% | 102% | 102% | 104% | 99.4% | 92% | 91.3% | 98.7% | 103% | 95% | 98.7% | 96.1% | 98.5% | 96.5% | 96.7% | 91.6% | 104% | 89.9% | 96.2% | 103% | 0 | 0 | 0 | 0 | 0 | > 10 µM | > 10 µM | > 10 µM | > 10 µM | > 10 µM |
| N=C(N)NCCCC[C@@H]1NC(=O)CCSSC[C@@H](C(N)=O)NC(=O)[C@@H]2CCCN2C(=O)[C@H](Cc2c[nH]c3ccccc23)NC(=O)[C@H](CC(=O)O)NC(=O)CNC1=O [eptifibatide] | 97% | 92.6% | 94.7% | 87.1% | 95.5% | 96.4% | 104% | 100% | 103% | 101% | 94.6% | 99.5% | 85.8% | 95.4% | 95.6% | 96.6% | 97.4% | 93.7% | 98.5% | 96% | 105% | 95.2% | 100% | 94.8% | 83.3% | 0 | 0 | 0 | 0 | 0.9 | > 10 µM | > 10 µM | > 10 µM | > 10 µM | > 10 µM |
| Nc1nc2c(ccc3ccccc32)s1 [SKA-31] | 118% | 109% | 114% | 110% | 99.1% | 98.3% | 103% | 101% | 103% | 96.7% | 99.6% | 104% | 97.5% | 106% | 93.9% | 100% | 103% | 101% | 102% | 98.9% | 102% | 100% | 103% | 100% | 97.8% | 0 | 0 | 0 | 0 | 0 | > 10 µM | > 10 µM | > 10 µM | > 10 µM | > 10 µM |
| Nc1ncnc2c1ncn2CCOCP(=O)(O)O [adefovir] | 104% | 99.6% | 98.5% | 98.7% | 101% | 97.4% | 103% | 104% | 98.2% | 96.2% | 106% | 100% | 90.2% | 85.7% | 110% | 90% | 99.1% | 94.1% | 98% | 100% | 109% | 90.7% | 91.2% | 104% | 108% | 0 | 0 | 0 | 0 | 0 | > 10 µM | > 10 µM | > 10 µM | > 10 µM | > 10 µM |
| CC[N+](CC)(CCNC(=O)C(=O)NCC[N+](CC)(CC)Cc1ccccc1Cl)Cc1ccccc1Cl [ambenonium] | 98.6% | 105% | 96.6% | 100% | 105% | 103% | 99.8% | 103% | 97.6% | 141% | 94.7% | 96% | 93.6% | 93.9% | 92.5% | 97.7% | 96.3% | 100% | 94.9% | 100% | 96.4% | 95.5% | 97.9% | 93.1% | 95.3% | 0 | 0 | 0 | 0 | 0 | > 10 µM | > 10 µM | > 10 µM | > 10 µM | > 10 µM |
